Measurements published in PMC2724550, “Citrus auraptene suppresses cyclin D1 and significantly delays N-methyl nitrosourea induced mammary carcinogenesis in female Sprague-Dawley rats” (BMC Cancer, 2009).

Experiments:
cyclin D1 = assay: Western blot of IGF-1 induced cyclin D1 expression in MCF-7 cells; format: cell-based, human; conditions: 10 μM auraptene, 2 h pretreatment, 8 h after IGF-1, MCF-7 cells
Procedure: To study the effect of auraptene on the expression on cyclin D1, MCF-7 cells were plated in eight 12-well plates at 1.5 × 10^4 cells/well. The cells were incubated at 37°C till the next day in media with serum. The cells were serum starved for synchronization in serum free media for the next 24 h. At 22 h of serum starvation, the cells except in DMSO only and IGF-1 only groups, were treated with 10 μM auraptene in DMSO. At 24 h of serum starvation, the cells except in DMSO group were treated with 10 ng/mL of IGF-1. The cells were harvested at 5,15 and 30 minutes and at 1 h, 2 h, 4 h, 8 h and 24 h after IGF-1 treatment by directly adding boiling Laemmeli buffer. The cyclin D1 expression was then analyzed by western blot. In short, equal volumes (15 μL) of the sample in Laemmeli buffer was loaded into each well and resolved. The separated proteins were then electroblotted on a 0.45 μm pore size PVDF membrane (Immobilon-P, Millipore, Billerica, MA). After the protein transfer the membrane was placed in Millipore SNAP id Protein Detection System. […] The band intensity was evaluated using the Image-J software. […]
Figure 2 Effects of auraptene on human breast carcinoma cells. […] Cell proliferation was assessed using the MTT reagent. […] Cell proliferation was assessed using the MTS reagent. […]

MCF-7 cells = assay: MCF-7 cell proliferation assay with IGF-1 (MTS); format: cell-based, human; conditions: IGF-1 10 ng/mL, 24 hrs
Procedure: The human breast carcinoma cell line MCF-7 was obtained from ATCC (Manassas, VA) and grown in a sterile humidified environment at 37°C and 5% CO2: 95% air with complete DMEM media. The MCF-7 cells were plated in a 96 well plate at 30,000 cells/well at a confluency of 40%. The cells were serum starved for 24 h. At 22 h of serum starvation, the cells were treated with auraptene at 1 – 50 μM auraptene in DMSO (0.1%, v/v). The control cells received vehicle only (DMSO, 0.1% v/v). At 24 h of serum starvation, the cells were treated with IGF-1(10 ng/mL). After 24 hrs of IGF-1 treatment, the cells were treated with MTS [3-(4,5-dimethylthiazol-2-yl)-5-(3-carboxy methoxy phenyl)-2-(4-sulfophenyl)-2H-tetrazolium], for 2 h and the absorbance was measured at 490 nm.
Figure 2 Effects of auraptene on human breast carcinoma cells. (A) Effects of auraptene on MDA-MB-231 cell proliferation. Cells were serum starved for 5 h and then treated with 1–50 μM auraptene in 0.01% DMSO. Cell proliferation was assessed using the MTT reagent. Figures represent % vehicle control (means ± S.E.) # Replicates = 2 plates at 6 wells each for the treatment groups and 12 wells for the control group (* statistically different from control group, p < 0.05, One-way ANOVA, Tukey test). (B) Effects of auraptene on MCF-7 cell proliferation. Cells were serum starved for 24 h. […] Cell proliferation was assessed using the MTS reagent. […]

[1] = Stability of auraptene in diet by HPLC; format: physicochemical; conditions: animal room conditions, HPLC analysis, data not shown
[2] = set-up: method as in PMID 18444171; conditions: male Sprague-Dawley rats, cited from earlier work
c-Myc = test system: c-Myc; set-up: method as in PMID 16979634; conditions: 25 μM auraptene, HT-29 human colorectal cancer cells; cited from earlier work
[3] = 500 μmol/kg bw p.o. gavage, 1–4 h

Compound: CC(C)=CCC/C(C)=C/COc1ccc2ccc(=O)oc2c1 [auraptene]
- IGF-1 induced cyclin D1 expression (cyclin D1): nearly a total loss of IGF-1 induced cyclin D1 expression
- suppression of MCF-7 cell proliferation (MCF-7 cells; 20 μM auraptene): 26%
- suppression of MCF-7 cell proliferation (MCF-7 cells; 50 μM auraptene): 49%
- stability in diet [1]: not degraded
- concentration in large intestine [2, 3]: ≤ 20 nmol/g
- concentration in small intestine [2, 3]: ≤ 100 nmol/g
- concentration in stomach [2, 3]: ~ 2000 nmol/g
- hepatic concentration ([2]; within 1–4 h of oral administration): ~ 25 μm
- expression of c-Myc (c-Myc): suppressed the expression of c-Myc
